Source: PubChem BioAssay (NCI)
Where “and” joins values, the source holds several entries; their conditions need not be identical. Equal entries are not always repeated.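 All cell lines were grown in 96-well plates and treated with compound for 48 hours. GI50 is the concentration that inhibits growth by half. The concentration for full growth arrest is given as TGI.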

Legend:
Assay in all cases: NCI tumour cell line growth inhibition, 48 h
KM12 colon = test system: KM12 colon
NCI-H226 lung = test system: NCI-H226 lung
NCI-H460 lung = test system: NCI-H460 lung
NCI-H522 lung = test system: NCI-H522 lung
OVCAR-8 ovarian = test system: OVCAR-8 ovarian
RPMI-8226 leukemia = test system: RPMI-8226 leukemia
SK-MEL-2 melanoma = test system: SK-MEL-2 melanoma
UACC-257 melanoma = test system: UACC-257 melanoma

SMILES | GI50 (KM12 colon) | TGI (KM12 colon) | GI50 (NCI-H226 lung) | TGI (NCI-H226 lung) [µM] | GI50 (NCI-H460 lung) | TGI (NCI-H460 lung) [µM] | GI50 (NCI-H522 lung) | TGI (NCI-H522 lung) | GI50 (OVCAR-8 ovarian) [µM] | TGI (OVCAR-8 ovarian) [µM] | GI50 (RPMI-8226 leukemia) | TGI (RPMI-8226 leukemia) [µM] | GI50 (SK-MEL-2 melanoma) [µM] | TGI (SK-MEL-2 melanoma) [µM] | GI50 (UACC-257 melanoma) [µM] | TGI (UACC-257 melanoma) [µM]
COc1ccc(C2CC(c3ccc(N(C)C)cc3)=NN2c2ccc(S(N)(=O)=O)cc2)cc1 (centres undefined) | 3.68 µM | > 100 µM | 2.54 µM | 8.09 | 2.44 µM | 5.53 | 2.69 µM | 6.69 µM | 3.98 | > 100 | 3.26 µM | 13.2 | 4 | 14.3 | 4.48 | > 100
Cc1ccc(S(=O)(=O)NC(=O)OC23COCN2COC3)cc1 |  | > 100 µM |  | > 100 |  | > 100 |  | > 100 µM |  | > 100 |  | 73 |  | > 100 |  | > 100
NC(=O)CC(N)c1nn[nH]n1 (centres undefined) |  | > 100 µM |  | > 100 |  | > 100 |  | > 100 µM |  | > 100 |  | > 100 |  | > 100 |  | > 100
O=S(=O)(O)c1ccc2cc3nn(-c4ccc(/C=C/c5ccc(-n6nc7cc8ccc(S(=O)(=O)O)cc8cc7n6)cc5S(=O)(=O)O)c(S(=O)(=O)O)c4)nc3cc2c1 | 30.4 µM | > 100 µM | > 100 µM | > 100 | 50.9 µM | > 100 | 78.4 µM | > 100 µM | > 100 | > 100 | > 100 µM | > 100 | > 100 | > 100 | > 100 | > 100
COc1ccc(-c2[nH]c3ccccc3c2/C=C(\C#N)S(=O)(=O)c2ccccc2)cc1 | 0.374 µM | 2.59 µM | 2.02 µM | > 66.4 | 0.404 µM | > 100 | 1.78 µM |  | 1.29 | > 26.6 | 2.14 µM | > 100 | 4.79 | > 21.8 | 10.7 | > 100
COc1ccc(/C=N\Nc2nc(SCC(C)C)nc(-c3ccc(OC)cc3)c2C#N)cc1 | 10.6 µM | > 100 µM | 10.5 µM | 49.7 | 0.548 µM | 11 | 11.3 µM | 63.2 µM | 5.3 | 29.8 | 5.48 µM | > 100 | 17.2 | 39.7 | 3.35 | 35.7
Nc1nc(-c2ccc(Cl)cc2)nc2c1sc(=S)n2-c1ccccc1 | 5.4 µM | > 100 µM | 2.78 µM | 6.73 | 3.31 µM | 10.2 | 5.64 µM | > 100 µM | 5.16 | > 100 | 5.54 µM | > 100 | 10.7 | 41.2 | 6.58 | 32
O=C(c1ccco1)c1c(C(F)(F)F)n([O-])c2cc(F)c(F)cc2[n+]1=O | 0.7 µM | 2 µM | 0.926 µM | 2.35 | 0.252 µM | 5.78 | 1.88 µM | 5.47 µM | 0.412 | 1.33 |  | 0.341 | 2.93 | 12.8 | 1.29 | 3.01
NCc1ccc(-c2nc(-c3ccc(Cl)c(O)c3)c(-c3ccncc3)[nH]2)cc1 | > 25 µM | > 25 µM | > 25 µM | > 25 | > 25 µM | > 25 | > 25 µM | > 25 µM | > 25 | > 25 | > 25 µM | > 25 | 1.65 | 9.86 | 3.63 | 17.4
CC(=O)N(O)c1ccc(/C=C/c2ccccc2)cc1 | 2.99 µM | 28.3 µM | 0.0656 µM | 0.386 | 0.247 µM | 8.39 | 3.58 µM | > 41.1 µM | 1.59 | > 52.5 | 3.21 µM | > 100 | 5.71 | 37.9 | 1.23 | 5.17
CC1(C)[C@H](O)[C@H](F)C[C@@]2(C)Oc3ccc(C(=O)Nc4ccc5c(c4)NC(=O)C54CCN(CCCCC#N)CC4)cc3C[C@H]12 | 0.463 µM and 0.707 µM | 9.79 µM and 11.9 µM | 2.91 µM | 17.4 | 0.0653 µM | 10.9 | 1.77 µM and 1.02 µM | 7.86 µM and 2.52 µM | 5.36 | 45.1 | 0.00262 µM |  | 1.14 | 2.44 | 1.57 | 5.02
O=[N+]([O-])c1cc(Cc2cc([N+](=O)[O-])c3cccnc3c2O)c(O)c2ncccc12 |  | 25.8 µM |  | 43.5 |  | 9.4 |  | 38 µM |  | > 42.9 |  | 41.4 |  | 29.6 |  | 14.1
N#Cc1c(NC(=O)c2ccccc2F)sc2c1CCCC2 | 5.12 µM | > 25 µM | > 25 µM | > 25 | > 19.5 µM | > 25 | > 12.8 µM | > 25 µM | > 25 | > 25 | > 25 µM | > 25 | > 25 | > 25 | > 25 | > 25
S=C(NCc1ccc2c(c1)OCO2)N1CCN(c2ncnc3c2oc2ccccc23)CC1 | 36.7 µM | > 100 µM | 3.25 µM | > 100 | 6.85 µM | > 100 | 24 µM | > 100 µM | 5.43 | > 100 | 6.6 µM | > 100 | 50.3 | > 100 | 1.71 | > 33.7
O=c1[nH]c(=S)[nH]c(-c2ccccc2)c1Cc1c(O)ccc2ccccc12 |  | > 100 µM |  | 82.1 |  | > 100 |  | > 100 µM |  | > 100 |  | 67.6 |  | 48.6 |  | 62.7
COc1ccc(OC)c(Cc2cnc3nc(N)nc(N)c3c2C)c1 |  | 20.7 µM |  | 33.3 |  | 12.2 |  | 21.8 µM |  | 27.8 |  | 15.8 |  | 27.9 |  | 47.4
O=C(c1cc(Cc2n[nH]c(=O)c3ccccc23)ccc1F)N1CCN(C(=O)C2CC2)CC1 | > 100 µM | > 100 µM | 41.3 µM and 48.8 µM | > 100 | 9.25 µM and 9.96 µM | > 100 | > 100 µM | > 100 µM | > 100 | > 100 | 30.5 µM and 35.7 µM | > 100 | > 100 | > 100 | > 100 | > 100
